Source: patent US6946475B1, “Anticancer calcium channel blockers” (University of Virginia Patent Foundation, priority 1999, dated 2005)

Columns and labels:
[1] = tested on: A549 (non-small cell lung cancer cells); assay: Measurement of cellular proliferation, A549 cells; format: cell-based; conditions: A549, 48 hours
Method: (§1) Measurement of cellular proliferation: LNCaP cells at 2.5×10^4/well or PC3 cells at 5×10^4/well, both in a final volume of 100 μl, were plated in triplicate in standard flat bottom 96 well tissue culture plates in the presence of drug or vehicle (DMSO). Unless otherwise indicated, cells were grown for 48 hours at 37° C. in a CO2 incubator. Relative cell growth was determined with the CellTiter 96 aqueous cell proliferation assay (Promega, Madison, Wis.) as described by the manufacturer using an automated plate reader. Results were calculated in a blinded fashion and are means of triplicate determinations.
(§2) For the 48 hour proliferation, cells were cultured with calcium channel antagonists or without calcium channel antagonists. The IC50 values of the calcium channel antagonists were determined.
(§3) Using the measurement cell proliferation assay described hereinabove, the cell lines Jurkat, LNCap (prostate cancer cell), PC-31 (prostate cancer cell), DU145 (prostate cancer cell), MDA-468 (breast cancer cell), MDA-36 (Breast cancer cell), MCF-7 (breast cancer cell), MIA PaCa-2 (pancreatic cancer cell), Hep G2 (liver cancer cell), A549 (non-small cell lung cancer cells), NCI H460 (non-small cell lung cancer cells), HT-29 (colon cancer cell), HCT-116 (colon cancer cell) and SK OV-3 (ovarian cancer cell) were cultured in the presence of TH-1177, TH-1205, TH-1201, TH-2109, TH-2029, TH-2043, TN-2085 and TH-2279.

[2] = tested on: MDA-468 (breast cancer cell); assay: Measurement of cellular proliferation, MDA-468 cells; format: cell-based; conditions: MDA-468, 48 hours
Method: as §1, §2, §3

[3] = tested on: SK OV-3 (ovarian cancer cell); assay: Measurement of cellular proliferation, SK OV-3 cells; format: cell-based; conditions: SK-OV-3, 48 hours
Method: as §1, §2, §3

Ca2+ entry in PC3 cells = assay: Measurement of intracellular Ca2+ concentration (Ca2+ entry), PC3 cells; format: cell-based, human
Method: Cells were incubated in growth media containing 1 μM of the acetoxy-methyl ester of the Ca^2+-sensitive fluorescent dye indo-1 (indo-1/AM, Molecular Probes, Eugene, Oreg.) for 1 hour at 37° C. Cells were washed three times in buffer A (10 mM HEPES, pH 7.4, 1 mM MgCl2, 3 mM KCl, 1 mM CaCl2, 140 mM NaCl, 0.1% glucose, 1% fetal bovine serum) and suspended to a final concentration of 10^6/ml. Prior to stimulation, cells were warmed to 37° C. Prior to stimulation, cells were also incubated with drug, calcium channel antagonists and the IC50 values were determined. Changes in [Ca^2+] were monitored in an SLM 8100C spectrofluorometer (SLM/Aminco, Urbana, Ill.) using previously published methods, Haverstick, et al. (1998) Cell Calcium, 23: 361-368; Densmore, et al. (1996) Am. J. Physiol., 271:C1494-1503, incorporated herein by reference.
Calcium influx into the cell is suitably stimulated using either (1) a physiological ligand or (2) an endoplasmic reticulum (ER) ATPase inhibitor. Preferably, a physiological ligand is used to stimulate calcium influx into the cell.
Ir. the experiment depicted in FIG. 4A, TH-1177 was added before the cells were stimulated with ATP. […] By 70 s after ATP addition, release of Ca^2+ from the internal storage pool was largely over (for example, see FIG. 5 below) and the maintenance of elevations of [Ca^2+]i over baseline was dependent on Ca entry from the extracellular compartment. […] Therefore, TH-1177 interacts with the Ca^2+ influx pathway.
The efficiency of TH-1177 at blocking Ca^2+ entry was assessed by comparison to the effect of chelation of extracellular Ca^2+ with EGTA, which was considered 100% inhibition of Ca^2+ entry.
The data presented above provide that TH-1177 inhibited the stimulated increase in [Ca^2+]i by blockage of Ca^2+ entry. […] This increase represented release of Ca^2+ from the internal storage pool. Addition of TH-1177 had no effect on the size of this change in [Ca^2+]i. […]

[4] = biological target: T1, α1H subunit of a calcium channel of a human heart (Homo sapiens, UniProt O95180); assay: Whole cell current recording, Xenopus oocytes transfected with α1H subunit; format: cell-based
T1 construct: expressed in transfected cells; host or cells: Xenopus oocytes (so in the source), pcDNA3 plasmid
Description: Xenopus oocytes were transfected with the α1H subunit of a calcium channel of a human heart prepared in accordance with the procedure described by Cribbs, et al. in Circulation Research, 1998, 83, 103-109, the contents of which are incorporated by reference. The α1H plasmid was obtained by cloning the α1H sequence into the EcoRV-X baI site of the transfection vector pcDNA3, in accordance with the procedure described in the Cribbs, et al. article. Xenopus oocyte cells (1×10^5 per 35 mm dish) were transfected with 2 μg of alpha 1H-Tx plasmid. […] The internal pipette solution contained (mmol/L) CsCl 55, CS SO3 75, MgCl2 10, EGTA 0.1, and HEPES 10 (pH adjusted to 7.2 with (CsOH). Currents were recorded using an Axopatch 200A, a Digidata 1200 A/D converter and pCLAMP software (Axon Instruments, Inc.).
The current of the cell in the depolarized cell was recorded over time (control). Within a few minutes after the control plot was recorded, the cells were again depolarized, but this time, the bath contained in addition 10 μM TH-1177. The current was recorded for the same length of time as the control. The current was recorded at about zero pA. Then the cells in the bath containing 10 μM TH-1177 were depolarized again, but this time the bath medium containing TH-1177 was aspirated out and replaced with fresh calcium medium depolarizing medium and the current was measured.

T1 sequence (O95180 whole entry): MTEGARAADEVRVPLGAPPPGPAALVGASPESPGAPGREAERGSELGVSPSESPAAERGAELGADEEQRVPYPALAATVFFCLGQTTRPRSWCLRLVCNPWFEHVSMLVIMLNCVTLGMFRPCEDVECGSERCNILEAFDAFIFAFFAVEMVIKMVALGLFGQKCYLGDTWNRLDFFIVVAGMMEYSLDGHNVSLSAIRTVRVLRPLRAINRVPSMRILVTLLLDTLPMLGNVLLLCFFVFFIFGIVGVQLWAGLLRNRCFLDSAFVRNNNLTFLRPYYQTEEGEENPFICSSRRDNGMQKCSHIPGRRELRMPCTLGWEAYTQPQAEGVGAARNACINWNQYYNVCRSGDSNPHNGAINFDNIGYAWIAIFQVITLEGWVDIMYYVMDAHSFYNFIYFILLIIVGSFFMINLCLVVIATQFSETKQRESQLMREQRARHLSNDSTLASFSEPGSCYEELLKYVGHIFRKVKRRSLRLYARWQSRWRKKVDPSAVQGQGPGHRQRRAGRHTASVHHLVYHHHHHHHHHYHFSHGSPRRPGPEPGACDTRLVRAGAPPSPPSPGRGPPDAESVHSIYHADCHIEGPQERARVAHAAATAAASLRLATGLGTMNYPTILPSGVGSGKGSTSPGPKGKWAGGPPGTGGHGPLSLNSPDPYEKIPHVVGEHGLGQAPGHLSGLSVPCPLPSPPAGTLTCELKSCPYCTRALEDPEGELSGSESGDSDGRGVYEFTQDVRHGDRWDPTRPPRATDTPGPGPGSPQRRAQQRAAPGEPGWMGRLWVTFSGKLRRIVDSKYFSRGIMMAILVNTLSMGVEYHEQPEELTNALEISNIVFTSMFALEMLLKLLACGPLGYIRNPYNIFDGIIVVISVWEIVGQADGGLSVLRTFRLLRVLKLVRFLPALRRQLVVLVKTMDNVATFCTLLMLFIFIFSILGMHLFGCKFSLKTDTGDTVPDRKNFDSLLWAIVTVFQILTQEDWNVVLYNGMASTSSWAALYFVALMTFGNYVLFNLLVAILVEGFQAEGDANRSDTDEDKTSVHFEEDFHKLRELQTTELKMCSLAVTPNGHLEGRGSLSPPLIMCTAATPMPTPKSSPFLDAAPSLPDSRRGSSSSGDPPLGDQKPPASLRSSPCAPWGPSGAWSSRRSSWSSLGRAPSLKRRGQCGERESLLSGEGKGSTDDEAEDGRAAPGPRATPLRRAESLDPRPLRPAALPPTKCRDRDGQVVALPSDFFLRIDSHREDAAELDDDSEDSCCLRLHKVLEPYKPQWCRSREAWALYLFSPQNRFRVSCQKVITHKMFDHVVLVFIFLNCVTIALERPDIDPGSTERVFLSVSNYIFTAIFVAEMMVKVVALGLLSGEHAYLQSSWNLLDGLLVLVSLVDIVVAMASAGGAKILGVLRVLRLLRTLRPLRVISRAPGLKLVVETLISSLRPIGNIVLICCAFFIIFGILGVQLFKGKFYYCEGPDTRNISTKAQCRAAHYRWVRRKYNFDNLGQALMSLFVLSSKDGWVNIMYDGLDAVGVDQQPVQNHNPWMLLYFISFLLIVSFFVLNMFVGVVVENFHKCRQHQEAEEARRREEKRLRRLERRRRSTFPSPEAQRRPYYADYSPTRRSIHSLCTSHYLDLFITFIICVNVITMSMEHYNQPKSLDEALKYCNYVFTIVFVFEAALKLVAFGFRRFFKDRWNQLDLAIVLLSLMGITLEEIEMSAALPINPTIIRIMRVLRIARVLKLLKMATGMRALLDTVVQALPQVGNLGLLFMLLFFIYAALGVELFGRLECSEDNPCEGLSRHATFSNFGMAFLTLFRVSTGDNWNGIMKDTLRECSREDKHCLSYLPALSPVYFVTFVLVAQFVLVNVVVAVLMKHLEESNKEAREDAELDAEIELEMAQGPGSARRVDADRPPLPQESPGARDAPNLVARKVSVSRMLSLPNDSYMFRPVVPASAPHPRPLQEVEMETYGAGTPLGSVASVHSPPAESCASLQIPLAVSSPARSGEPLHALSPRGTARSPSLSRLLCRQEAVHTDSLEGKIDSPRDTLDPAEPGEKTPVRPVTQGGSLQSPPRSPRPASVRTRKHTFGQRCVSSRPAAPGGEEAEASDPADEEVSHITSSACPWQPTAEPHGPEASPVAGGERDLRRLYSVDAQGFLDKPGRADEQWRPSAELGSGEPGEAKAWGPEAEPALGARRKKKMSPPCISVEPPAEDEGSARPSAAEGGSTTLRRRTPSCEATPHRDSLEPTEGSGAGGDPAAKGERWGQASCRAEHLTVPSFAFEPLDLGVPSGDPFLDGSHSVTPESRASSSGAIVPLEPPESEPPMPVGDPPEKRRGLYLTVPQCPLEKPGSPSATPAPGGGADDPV

`COc1ccc(CCN2CCC[C@H]2COC(c2ccccc2)c2ccc(Cl)cc2)cc1` (some centres unmarked) [TH-1177] was tested, and the IC50 [1] was 71 µM, the IC50 [2] was 13 µM and the IC50 [3] was 25 µM. For the same compound, the IC50 (Ca2+ entry in PC3 cells; EGTA chelation of extracellular Ca2+ considered 100% inhibition, read-out: IC50 for blocking Ca2+ entry, PC3 cells) was 16 µM, the “Effect on increase in [Ca2+]i stimulated by ATP” value (Ca2+ entry in PC3 cells; PC3, 1 mM ATP, drug added before) was “concentration dependent inhibition” and the “Effect on release of Ca2+ from the internal storage pool” value (Ca2+ entry in PC3 cells; PC3, EGTA in medium, 1 mM ATP) was “no effect”. The “Current in depolarized α1H-transfected cells” value ([4]; 10 μM TH-1177 in bath) was “about zero” and the “Ability of calcium to cross the cell membrane” value ([4]; α1H-transfected Xenopus oocytes, 10 μM, restored on washout) was “inhibits”.
